From US8791148B2, “Substituted benzimidazolone derivatives, medicaments comprising them and their use” (AbbVie Deutschland GmbH & Co. KG, priority 2006, dated 2014)

molecular target: T1, human vasopressin V1b receptor (Homo sapiens, UniProt P47901); assay: Vasopressin V1b receptor binding assay; settings: membranes from CHO-K1 cells with stably expressed human V1b receptors; displacement of 1.5 nM 3H-AVP; read-out: V1b receptor affinity (affinity constant Ki)
T1 construct: expressed in transfected cells; host or cells: CHO-K1 (cell line hV1b-3H2_CHO), membrane preparation
T1 sequence (P47901 1-424): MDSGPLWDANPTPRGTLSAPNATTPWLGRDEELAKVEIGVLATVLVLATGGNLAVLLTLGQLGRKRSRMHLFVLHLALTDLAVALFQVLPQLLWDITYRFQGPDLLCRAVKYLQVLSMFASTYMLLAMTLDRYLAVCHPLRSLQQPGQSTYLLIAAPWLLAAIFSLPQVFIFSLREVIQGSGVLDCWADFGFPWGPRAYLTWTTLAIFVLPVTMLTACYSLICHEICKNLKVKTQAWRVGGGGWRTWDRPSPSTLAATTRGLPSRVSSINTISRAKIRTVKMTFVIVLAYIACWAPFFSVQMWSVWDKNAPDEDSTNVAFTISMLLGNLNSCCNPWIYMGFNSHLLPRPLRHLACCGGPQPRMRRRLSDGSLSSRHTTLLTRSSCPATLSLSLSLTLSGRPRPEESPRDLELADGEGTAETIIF
Method: Vasopressin V1b Receptor Binding Assay:
The test substances were dissolved in a concentration of 10^−2 M in DMSO and further diluted to 5×10^−4 M to 5×10^−9 M in DMSO. This series of DMSO predilutions was diluted 1:10 with assay buffer. The substance concentration was again diluted 1:5 in the assay mixture (2% DMSO in the mixture).
The membrane pellet was again homogenized and centrifuged as described and then taken up in 50 mM Tris-HCl, pH 7.4, homogenized and stored in aliquots frozen in liquid nitrogen at −190° C.
The incubation buffer was: 50 mM Tris, 10 mM MgCl2, 0.1% BSA, pH 7.4. […] The nonspecific binding was determined with 1 uM AVP (Bachem #H1780). All determinations were carried out as triplicate determinations. After incubation (60 minutes at room temperature), the free radioligand was removed by vacuum filtration (Skatron cell harvester 7000) through Wathman GF/B glass fiber filter mats, and the filters were transferred into scintillation vials. The liquid scintillation measurement took place in a Tricarb model 2000 or 2200CA instrument (Packard). Conversion of the measured cpm into dpm was carried out with the aid of a standard quench series.
The binding parameters were calculated by nonlinear regression in SAS.
The above assay was used to measure the affinities of the compounds of the invention for the human vasopressin V1b receptor and to determine the affinity constants (Ki).

Row | SMILES | Ki [nM]
1 | COc1ccc(S(=O)(=O)n2c(=O)n(C(C(=O)N3CCN(c4ccncc4)CC3)c3ccccc3OC)c3cc(Cl)ccc32)c(OC)c1 (centres unmarked) [Example 12, 5-Chloro-1-(2,4-dimethoxybenzenesulfonyl)-3-[1-(2-methoxyphenyl)-2-oxo-2-(4-pyridin-4-ylpiperazin-1-yl)ethyl]-1,3-dihydrobenzimidazol-2-one] | 500 to 10000
2 | COc1ccccc1C(C(=O)N1CCN(c2ccncc2)CC1)n1c(=O)n(S(=O)(=O)c2cccc3cccnc23)c2ccc(Cl)cc21 (centres unmarked) [Example 13, 5-Chloro-3-[1-(2-methoxyphenyl)-2-oxo-2-(4-pyridin-4-ylpiperazin-1-yl)-ethyl]-1-(quinoline-8-sulfonyl)-1,3-dihydrobenzimidazol-2-one] | 500 to 10000
3 | COc1ccccc1C(C(=O)N1CCN(c2ccncc2)CC1)n1c(=O)n(S(=O)(=O)c2ccc(C#N)cc2)c2ccc(Cl)cc21 (centres unmarked) [Example 14, 4-{5-Chloro-3-[1-(2-methoxyphenyl)-2-oxo-2-(4-pyridin-4-ylpiperazin-1-yl)ethyl]-2-oxo-2,3-dihydrobenzimidazole-1-sulfonyl}benzonitrile] | 500 to 10000
4 | COc1ccccc1C(C(=O)N1CCN(C2CCN(C)CC2)CC1)n1c(=O)n(S(=O)(=O)c2cccc3cccnc23)c2ccc(Cl)cc21 (centres unmarked) [Example 15, 5-Chloro-3-{1-(2-methoxyphenyl)-2-[4-(1-methylpiperidin-4-yl)piperazin-1-yl]-2-oxoethyl}-1-(quinoline-8-sulfonyl)-1,3-dihydrobenzimidazol-2-one] | 500 to 10000
5 | COc1ccccc1C(C(=O)N1CCN(C2CCN(C)CC2)CC1)n1c(=O)n(S(=O)(=O)c2ccc(C#N)cc2)c2ccc(Cl)cc21 (centres unmarked) [Example 16, 4-(5-Chloro-3-{1-(2-methoxyphenyl)-2-[4-(1-methylpiperidin-4-yl)piperazin-1-yl]-2-oxoethyl}-2-oxo-2,3-dihydrobenzoimidazole-1-sulfonyl)benzonitrile] | 500 to 10000
6 | CCCN1CCN(C2CCN(C(=O)C(c3ccccc3)n3c(=O)n(S(=O)(=O)c4ccc(OC)cc4)c4ccc(Cl)cc43)CC2)CC1 (centres unmarked) [Example 17, 5-Chloro-1-(4-methoxybenzenesulfonyl)-3-{2-oxo-1-phenyl-2-[4-(4-propylpiperazin-1-yl)piperidin-1-yl]ethyl}-1,3-dihydrobenzimidazol-2-one] | < 100
7 | COc1ccc(S(=O)(=O)n2c(=O)n(C(C(=O)N3CCN(C4CCN(C)CC4)CC3)c3cccc(OC)c3)c3cc(Cl)ccc32)cc1 (centres unmarked) [Example 19, 5-Chloro-1-(4-methoxybenzenesulfonyl)-3-{1-(3-methoxyphenyl)-2-[4-(1-methylpiperidin-4-yl)piperazin-1-yl]-2-oxo-ethyl}-1,3-dihydrobenzimidazol-2-one] | 100 to 500
8 | COc1ccc(S(=O)(=O)n2c(=O)n(C(C(=O)N3CCN(c4ccncc4)CC3)c3cccc(OC)c3)c3cc(Cl)ccc32)cc1 (centres unmarked) [Example 20, 5-Chloro-1-(4-methoxybenzenesulfonyl)-3-[1-(3-methoxyphenyl)-2-oxo-2-(4-pyridin-4-ylpiperazin-1-yl)ethyl]-1,3-dihydrobenzimidazol-2-one] | < 100

More lines, now with the values ahead:

Row | Ki [nM] | SMILES
9 | 100 to 500 | COc1cccc(C(C(=O)N2CCN(c3ccncc3)CC2)n2c(=O)n(S(=O)(=O)c3ccc(OC)cc3OC)c3ccc(Cl)cc32)c1 (centres unmarked) [Example 21, 5-Chloro-1-(2,4-dimethoxybenzenesulfonyl)-3-[1-(3-methoxyphenyl)-2-oxo-2-(4-pyridin-4-ylpiperazin-1-yl)-ethyl]-1,3-dihydrobenzimidazol-2-one]
10 | 100 to 500 | COc1cccc(C(C(=O)N2CCN(C3CCN(C)CC3)CC2)n2c(=O)n(S(=O)(=O)c3ccc(C#N)cc3)c3ccc(Cl)cc32)c1 (centres unmarked) [Example 22, 4-(5-Chloro-3-{1-(3-methoxyphenyl)-2-[4-(1-methylpiperidin-4-yl)piperazin-1-yl]-2-oxoethyl}-2-oxo-2,3-dihydrobenzimidazol-1-sulfonyl)benzonitrile]
11 | 500 to 10000 | CN1CCC(N2CCN(C(=O)C(c3ccccc3)n3c(=O)n(S(=O)(=O)c4ccc(C#N)cc4)c4ccc(C#N)cc43)CC2)CC1 (centres unmarked) [Example 23, 1-(4-Cyanobenzenesulfonyl)-3-{2-[4-(1-methylpiperidin-4-yl)piperazin-1-yl]-2-oxo-1-phenylethyl}-2-oxo-2,3-dihydro-1H-benzimidazole-5-carbonitrile]
12 | 100 to 500 | COc1ccc(S(=O)(=O)n2c(=O)n(CC(=O)N3CCN(c4ccncc4)CC3)c3cc(Cl)ccc32)cc1 [Example 24, 5-Chloro-1-(4-methoxybenzenesulfonyl)-3-[2-oxo-2-(4-pyridin-4-ylpiperazin-1-yl)-ethyl]-1,3-dihydrobenzimidazol-2-one]
13 | 100 to 500 | COc1ccc(S(=O)(=O)n2c(=O)n(CC(=O)N3CCN(c4ccncc4)CC3)c3cc(Cl)ccc32)c(OC)c1 [Example 25, 5-Chloro-1-(2,4-dimethoxybenzenesulfonyl)-3-[2-oxo-2-(4-pyridin-4-ylpiperazin-1-yl)-ethyl]-1,3-dihydrobenzimidazol-2-one]
14 | 500 to 10000 | N#Cc1ccc(S(=O)(=O)n2c(=O)n(CC(=O)N3CCN(c4ccncc4)CC3)c3cc(Cl)ccc32)cc1 [Example 26, 4-{5-Chloro-2-oxo-3-[2-oxo-2-(4-pyridin-4-ylpiperazin-1-yl)ethyl]-2,3-dihydrobenzimidazole-1-sulfonyl}benzonitrile]
15 | 100 to 500 | COc1ccc(S(=O)(=O)n2c(=O)n(C(Cc3ccccc3)C(=O)N3CCN(c4ccncc4)CC3)c3cc(Cl)ccc32)cc1 (centres unmarked) [Example 27, 3-[1-Benzyl-2-oxo-2-(4-pyridin-4-ylpiperazin-1-yl)ethyl]-5-chloro-1-(4-methoxybenzenesulfonyl)-1,3-dihydrobenzimidazol-2-one]
16 | < 100 | COc1ccc(S(=O)(=O)n2c(=O)n(C(Cc3ccccc3)C(=O)N3CCN(c4ccncc4)CC3)c3cc(Cl)ccc32)c(OC)c1 (centres unmarked) [Example 28, 3-[1-Benzyl-2-oxo-2-(4-pyridin-4-ylpiperazin-1-yl)ethyl]-5-chloro-1-(2,4-dimethoxybenzenesulfonyl)-1,3-dihydrobenzimidazol-2-one]
17 | 500 to 10000 | N#Cc1ccc(S(=O)(=O)n2c(=O)n(C(Cc3ccccc3)C(=O)N3CCN(c4ccncc4)CC3)c3cc(Cl)ccc32)cc1 (centres unmarked) [Example 29, 4-{3-[1-Benzyl-2-oxo-2-(4-pyridin-4-ylpiperazin-1-yl)ethyl]-5-chloro-2-oxo-2,3-dihydrobenzimidazol-1-sulfonyl}-benzonitrile]
18 | 500 to 10000 | COc1ccc(S(=O)(=O)n2c(=O)n(C(C)C(=O)N3CCN(c4ccncc4)CC3)c3cc(Cl)ccc32)cc1 (centres unmarked) [Example 30, 5-Chloro-1-(4-methoxybenzenesulfonyl)-3-[1-methyl-2-oxo-2-(4-pyridin-4-ylpiperazin-1-yl)-ethyl]-1,3-dihydrobenzimidazol-2-one]
19 | 100 to 500 | COc1ccc(S(=O)(=O)n2c(=O)n(C(C)C(=O)N3CCN(c4ccncc4)CC3)c3cc(Cl)ccc32)c(OC)c1 (centres unmarked) [Example 31, 5-Chloro-1-(2,4-dimethoxybenzenesulfonyl)-3-[1-methyl-2-oxo-2-(4-pyridin-4-ylpiperazin-1-yl)ethyl]-1,3-dihydrobenzimidazol-2-one]
20 | 500 to 10000 | CC(C(=O)N1CCN(c2ccncc2)CC1)n1c(=O)n(S(=O)(=O)c2ccc(C#N)cc2)c2ccc(Cl)cc21 (centres unmarked) [Example 32, 4-{5-Chloro-3-[1-methyl-2-oxo-2-(4-pyridin-4-ylpiperazin-1-yl)ethyl]-2-oxo-2,3-dihydrobenzimidazole-1-sulfonyl}benzonitrile]
